Results from patent publication US5521173A, “Tricyclic benzazepine vasopressin antagonists” (American Home Products Corporation, priority 1995, dated 1996).

Tests used:
[1] = target: T1, Vasopressin V1 receptor subtype in Human Platelet Membranes (Homo sapiens, UniProt P37288); assay: Binding to Vasopressin V1 receptor subtype in Human Platelet Membranes
T1 construct: tissue Hudson Valley Blood Services, Westchester Medical Center, Valhalla, N.Y; host or cells: human platelets (frozen platelet rich plasma)
Experimental: Radioligand Binding Experiments with Human Platelet Membranes
(a) Platelet Membrane Preparation
Frozen platelet rich plasma (PRP), (Platelet Source: Hudson Valley Blood Services, Westchester Medical Center, Valhalla, N.Y.) are thawed to room temperature. The tubes containing the PRP are centrifuged at 16,000×g for 10 min. at 4° C. and the supernatant fluid discarded. The platelets resuspended in an equal volume of 50.0 mM Tris.HCl, pH 7.5 containing 120 mM NaCl and 20.0 mM EDTA. The suspension is recentrifuged at 16,000× g for 10 min. This washing step is repeated one more time. The wash discarded and the lysed pellets homogenized in low ionic strength buffer of Tris.HCl, 5.0 mM, pH 7.5 containing 5.0 mM EDTA. The homogenate is centrifuged at 39,000× g for 10 min. The resulting pellet is resuspended in Tris.HCl buffer, 70.0 mM, pH 7.5 and recentrifuged at 39,000× g for 10 min. The final pellet is resuspended in 50.0 mM Tris.HCl buffer pH 7.4 containing 120 mM NaCl and 5.0 mM KCl to give 1.0-2.0 mg protein per ml of suspension.
(b) Binding to Vasopressin V1 receptor subtype in Human Platelet Membranes
In wells of a 96 well format microtiter plate, add 100 μl of 50.0 mM Tris.HCl buffer containing 0.2% BSA and a mixture of protease inhibitors (aprotinin, leupeptin etc.). Then add 20 μl of [^3 H]Ligand (Manning or Arg^8 Vasopressin), to give final concentrations ranging from 0.01 to 10.0 nM. Initiate the binding by adding 80.0 μl of platelet suspension (approx. 100 μg protein). Mix all reagents by pipetting the mixture up and down a few times. Non specific binding is measured in the presence of 1.0 µM of unlabeled ligand (Manning or Arg^8 Vasopressin). Let the mixture stand undisturbed at room temperature for ninety (90) min. Upon this time, rapidly filter off the incubate under vacuum suction over GF/B filters, using a Brandel Harvester. Determine the radioactivity caught on the filter disks by the addition of liquid scintillant and counting in a liquid scintillator.

[2] = target: T2, Rat Kidney Medullary V2 Receptors (Rattus norvegicus, UniProt Q00788); assay: Binding Assay to Rat Kidney Medullary V2 Receptors; conditions: rat kidney medullary V2 (no asterisk)
T2 construct: Medullary tissues from rat kidneys are dissected out; from tissue; host or cells: rat kidney medulla membranes
Experimental: Binding Assay to Rat Kidney Medullary V2 Receptors
Medullary tissues from rat kidneys are dissected out, cut into small pieces and soaked in a […] sodium chloride solution containing 1.0 mM EDTA with many changes of the liquid phase, until the solution is clear of blood. The tissue is homogenized in a 0.25M sucrose solution containing 1.0 mM EDTA and 0.1 mM PMSF using a Potter-Elvehjem homogenizer with a teflon pestle. The homogenate is filtered through several layers (4 layers) of cheese cloth. The filtrate is rehomogenized using a dounce homogenizer, with a tight fitting pestle. The final homogenate is centrifuged at 1500× g for 15 min. […] The protein content is determined by the Lowry's method (Lowry et al., J. Biol. Chem., 1953). […]
For binding experiments, the following is added in μl volume to wells of a 96 well format of a microtiter plate: 100.0 μl of 100.0 mM Tris.HCl buffer containing 0.2% heat inactivated BSA, 10.0 mM MgCl2 and a mixture of protease inhibitors: leupeptin, 1.0 mg %; aprotinin, 1.0 mg %; 1,10-phenanthroline, 2.0 mg %; trypsin inhibitor, 10.0 mg % and 0.1 mM PMSF, 20.0 μl of [^3 H] […] Non-specific binding is assessed in the presence of 1.0 μM of unlabeled ligand, added in 20 μl volume. […] The data are analyzed for IC50 values by the LUNDON-2 program for competition (LUNDON SOFTWARE, Ohio).

T1 sequence (P37288 whole entry): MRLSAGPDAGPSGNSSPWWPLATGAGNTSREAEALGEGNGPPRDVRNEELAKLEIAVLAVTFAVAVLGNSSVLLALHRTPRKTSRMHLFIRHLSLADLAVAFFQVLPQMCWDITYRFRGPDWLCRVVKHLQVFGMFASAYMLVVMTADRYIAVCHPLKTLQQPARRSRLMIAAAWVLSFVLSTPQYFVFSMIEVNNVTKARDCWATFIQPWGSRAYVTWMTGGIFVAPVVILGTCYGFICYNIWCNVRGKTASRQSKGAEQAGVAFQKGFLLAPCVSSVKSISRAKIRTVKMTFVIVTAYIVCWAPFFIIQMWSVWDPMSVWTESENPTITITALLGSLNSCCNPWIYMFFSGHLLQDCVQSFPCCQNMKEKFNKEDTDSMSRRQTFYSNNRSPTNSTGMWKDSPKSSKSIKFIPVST
T2 sequence (Q00788 whole entry): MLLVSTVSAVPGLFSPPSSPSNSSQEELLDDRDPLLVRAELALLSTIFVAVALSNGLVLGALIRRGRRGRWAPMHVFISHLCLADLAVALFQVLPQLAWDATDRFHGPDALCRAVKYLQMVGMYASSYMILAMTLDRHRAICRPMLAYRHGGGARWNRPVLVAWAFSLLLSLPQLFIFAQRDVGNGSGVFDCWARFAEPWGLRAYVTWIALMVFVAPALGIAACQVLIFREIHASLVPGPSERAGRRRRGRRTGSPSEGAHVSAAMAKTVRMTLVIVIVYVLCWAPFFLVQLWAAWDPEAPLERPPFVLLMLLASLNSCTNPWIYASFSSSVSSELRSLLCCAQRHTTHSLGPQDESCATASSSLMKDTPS

Compound	IC50 [1] [nM]	IC50 [2] [nM]
O=C(c1ccc(-c2ccccc2)cc1)N1Cc2ccnn2Cc2ccccc21 [Example 7, 5-([1,1'-Biphenyl]-4-ylcarbonyl)-5,10-dihydro-4H-pyrazolo[5,1-c][1,4]benzodiazepine]	14	–
O=C(c1ccc(-c2cc(F)cc(F)c2)cc1)N1Cc2cccn2Cc2ccccc21 [Example 3, 10,11-Dihydro-10-[4-(3,5-difluorophenyl)benzoyl]-5H-pyrrolo[2,1-c][1,4]benzodiazepine]	85	–
O=C(c1ccc(-c2ccccc2C(F)(F)F)cc1)N1Cc2cccn2Cc2ccccc21 [Example 8]	–	3300

Results, then the compound that gave them:

IC50 [1] [nM]	IC50 [2] [nM]	Compound
–	1200	O=C(c1ccc(-c2ccccn2)cc1)N1Cc2cccn2Cc2ccccc21 [Example 9, 10,11-Dihydro-10-[4-(2-pyridinyl)benzoyl]-5H-pyrrolo[2,1-c][1,4]benzodiazepine]
2.9	–	O=C(c1ccc(-c2ccccc2)cc1)N1Cc2cccn2Cc2ccccc21 [Example 19, 10-([1,1'-Biphenyl]-4-ylcarbonyl)-10,11-dihydro-5H-pyrrolo[2,1-c][1,4]benzodiazepine]
